Columns and labels:
Type in all cases: cell-based
[1] = tested on: E. cloacae 260508 (TEM-1, CTX-M-15); assay: MIC of ceftazidime (CAZ) in combination with compounds at 4 μg/mL, broth microdilution; conditions: Enterobacter cloacae; strain 260508; CAZ alone, no compound
Protocol: (§1) Method 2: MIC of Compounds and Synergy with Ceftazidime Against Bacterial Isolates (Table 2 and 3)
(§2) Compounds of the present invention were assessed against genotyped bacterial strains alone or in combination with the β-lactam ceftazidime (CAZ). In the assays, MICs of said compounds, or of ceftazidime at fixed concentrations of said compounds were determined by the broth microdilution method according to the Clinical Laboratory Standards Institute (CLSI-M7-A7). Briefly, compounds alone according to the invention were prepared in DMSO and spotted (2 μL each) on sterile polystyrene plates (Corning, 3788). Compounds and ceftazidime dilutions were prepared in DMSO and spotted (1 μL each) on sterile polystyrene plates (Corning, 3788). Log phase bacterial suspensions were adjusted to a final density of 5×10^5 cfu/mL in cation-adjusted Mueller-Hinton broth (Becton-Dickinson) and added to each well (98 μL). Microplates were incubated for 16-20 h at 35° C. in ambient air. The MIC of the compounds was defined as the lowest concentration of said compounds that prevented bacterial growth as read by visual inspection. The MIC of ceftazidime at each compound concentration was defined as the lowest concentration of ceftazidime that prevented bacterial growth as read by visual inspection.

E. cloacae P99 (AmpC) = assay: as above; conditions: Enterobacter cloacae; strain P99; CAZ alone, no compound
Protocol: as §1, §2

[2] = tested on: E. cloacae UFR51 (SHV-12, IMP-8); assay: as above; conditions: Enterobacter cloacae, read-out: MIC of CAZ
Protocol: as §1, §2

[3] = tested on: E. cloacae UFR70 (TEM-1, CTX-M-15, CMY-2, OXA-1, Porin loss); assay: as above; conditions: Enterobacter cloacae, read-out: MIC of CAZ
Protocol: as §1, §2

[4] = tested on: E. cloacae UFR85 (TEM-1, CTX-M-15, AmpC); assay: as above; conditions: Enterobacter cloacae; strain UFR85; CAZ alone, no compound
Protocol: as §1, §2

[5] = tested on: E. coli 131119 (TEM-1, OXA-48); assay: as above; conditions: Escherichia coli; strain 131119; CAZ alone, no compound
Protocol: as §1, §2

E. coli RGN238 (OXA-1) = assay: as above; conditions: Escherichia coli; strain RGN238; CAZ alone, no compound
Protocol: as §1, §2

[6] = tested on: E. coli UFR18 (CTX-M-15, OXA-204); assay: as above; conditions: Escherichia coli, read-out: MIC of CAZ
Protocol: as §1, §2

[7] = tested on: E. coli UFR32 (TEM-1, VEB-1, OXA-10); assay: as above; conditions: Escherichia coli, read-out: MIC of CAZ
Protocol: as §1, §2

[8] = tested on: E. coli UFR41 (TEM-1, CTX-M-15, CMY-2, OXA-1, NDM-4); assay: as above; conditions: Escherichia coli, read-out: MIC of CAZ
Protocol: as §1, §2

[9] = tested on: E. coli UFR61O (TEM-1, KPC-2); assay: as above; conditions: Escherichia coli; strain UFR61O; CAZ alone, no compound
Protocol: as §1, §2

[10] = tested on: E. coli UFR74 (SHV-1, DHA-1); assay: as above; conditions: Escherichia coli; strain UFR74; CAZ alone, no compound
Protocol: as §1, §2

[11] = tested on: K. oxytoca UFR21 (TEM-1, CTX-M-15, OXA-48); assay: as above; conditions: Klebsiella oxytoca; strain UFR21; CAZ alone, no compound
Protocol: as §1, §2

[12] = tested on: K. pneumoniae 160143 (TEM-1, SHV-1, CTX-M-15, KPC-2, OXA-1); assay: as above; conditions: Klebsiella pneumoniae; strain 160143; CAZ alone, no compound
Protocol: as §1, §2

[13] = tested on: K. pneumoniae 200047 (TEM-1, SHV-32, CTX-M-15, OXA-1); assay: as above; conditions: Klebsiella pneumoniae; strain 200047; CAZ alone, no compound
Protocol: as §1, §2

[14] = tested on: K. pneumoniae 6299 (TEM-1, SHV-11, OXA-163); assay: as above; conditions: Klebsiella pneumoniae; strain 6299; CAZ alone, no compound
Protocol: as §1, §2

[15] = tested on: K. pneumoniae BAA-1898 (TEM-1, SHV-11, SHV-12, KPC-2); assay: as above; conditions: Klebsiella pneumoniae, BAA1898; strain BAA-1898; CAZ alone, no compound
Protocol: as §1, §2

[16] = tested on: K. pneumoniae UFR24 (TEM-1, SHV-2, SHV-11, OXA-1, OXA-48, OXA-47); assay: as above; conditions: Klebsiella pneumoniae, read-out: MIC of CAZ
Protocol: as §1, §2

[17] = tested on: K. pneumoniae UFR39 (CTX-M-15, NDM-1); assay: as above; conditions: Klebsiella pneumoniae; strain UFR39; CAZ alone, no compound
Protocol: as §1, §2

[18] = tested on: K. pneumoniae UFR77 (CMY-2); assay: as above; conditions: Klebsiella pneumoniae; strain UFR77; CAZ alone, no compound
Protocol: as §1, §2

[19] = tested on: P. aeruginosa CIP107051 (TEM-24); assay: as above; conditions: Pseudomonas aeruginosa; strain CIP107051; CAZ alone, no compound
Protocol: as §1, §2

[20] = tested on: E. coli 190317 (TEM-1, SHV-12, CTX-M-15, OXA-1); assay: microbe, parasite or virus in culture; conditions: Escherichia coli; strain 190317; CAZ alone, no compound
Protocol: as §1, §2

[21] = tested on: K. pneumoniae UFR68 (TEM-1, SHV-11, CTX-M-15, KPC-3); assay: microbe, parasite or virus in culture; conditions: Klebsiella pneumoniae, read-out: MIC of CAZ
Protocol: as §1, §2

How did the MIC [1] turn out when `CC(C)(O/N=C(\C(=O)N[C@@H]1C(=O)N2C(C(=O)[O-])=C(C[n+]3ccccc3)CS[C@H]12)c1csc(N)n1)C(=O)O` [ceftazidime] was run?
Its MIC is 128 µg/mL.

And the MIC (E. cloacae P99 (AmpC))?
Its MIC is 128 µg/mL.

And the MIC [2]?
The MIC was > 128 µg/mL.

What about the MIC [3] of the same compound?
Its MIC is > 128 µg/mL.

What about the MIC [4] of the same compound?
The MIC was 128 µg/mL.

What about the MIC [5] of the same compound?
The MIC was 0.5 µg/mL.

What about the MIC (E. coli RGN238 (OXA-1)) of the same compound?
Its MIC is 0.5 µg/mL.

What about the MIC [6] of the same compound?
The MIC was > 128 µg/mL.

And the MIC [7]?
The MIC was > 128 µg/mL.

What about the MIC [8] of the same compound?
The MIC was > 128 µg/mL.

What about the MIC [9] of the same compound?
Its MIC is 128 µg/mL.

And the MIC [10]?
The MIC was 64 µg/mL.

What about the MIC [11] of the same compound?
Its MIC is 128 µg/mL.

What about the MIC [12] of the same compound?
Its MIC is 128 µg/mL.

What about the MIC [13] of the same compound?
Its MIC is 128 µg/mL.

And the MIC [14]?
Its MIC is 256 µg/mL.

And the MIC [15]?
Its MIC is 256 µg/mL.

What about the MIC [16] of the same compound?
The MIC was > 128 µg/mL.

What about the MIC [17] of the same compound?
The MIC was > 1020 µg/mL.

And the MIC [18]?
The MIC was 64 µg/mL.

And the MIC [19]?
The MIC was 256 µg/mL.

And the MIC [20]?
The MIC was 128 µg/mL.

What about the MIC [21] of the same compound?
The MIC was > 128 µg/mL.
